# Values of other authors as cited in patent publication US7279279B2, “Compositions and methods for determining anti-viral drug susceptibility and resistance and anti-viral drug screening” (Monogram Biosciences, Inc., priority 1996, dated 2007).
# Tested on: HIV
# Conditions: background statement on drug treatment of HIV; no test conditions given
structure (smiles),measurement,value
"Cc1cn([C@H]2C[C@H](N=[N+]=[N-])[C@@H](CO)O2)c(=O)[nH]c1=O [AZT, zidovudine]",reduce virus replication,about 90%
